Experiments:
[1] = tested on: sialidase produced by Arthrobacter ureaffacients; assay: Sialidase inhibition, 4-MU-NeuAc fluorescence assay; type: biochemical, Arthrobacter ureafaciens; details: for Inhibition rate / NeuAc released: substrate 4-MU-NeuAc, pH 4.2, 37 °C, 15 min
Experimental: (§1) 100 µ ℓ of a 0.5 mM solution of 4-methylumbelliferyl-N-acetylneuraminic acid (4-MU-NeuAc) (a product of Nakarai Kagaku Co., Ltd) of the following formula: [drawing 15]
(§2) 100 µ ℓ of a 200 mM sodium acetate buffer (pH 4.2) and 100 µ ℓ of N-acetyl-3-fluoroneuraminic acid (compound 1) 4 to 400 µM were added to an enzyme solution ([…]) (10 mU/ml) of sialidase (a product of Nakarai Kagaku Co., Ltd.) product from Arthrobacter ureafaciens in a test tube, and the reaction was conducted in a water bath at 37 °C for 15 min. Then, 3.6 ml of a 200 mM glycine/NaOH buffer (pH 10.4) was added to the reaction mixture in the test tube to terminate the reaction. the concentration of 4-methylumbelliferone formed in the reaction solution was determined from its fluorescence intensity at an excitation wave length of 360 nm and an emission wave length of 440 nm with a fluorescence spectrophotometer (a product of Hitachi, Ltd.). The amount of free sialic acid was determined from this value.
(§3) The sialidase inhibition rate was determined according to the following formula: [formula]

[2] = molecular target: sialidase produced by Vibrio colerae (Vibrio cholerae serotype O1, UniProt P0C6E9); assay: as above; type: biochemical; details: same procedure as Example 1
Sequence of sialidase produced by Vibrio colerae (P0C6E9 25-781): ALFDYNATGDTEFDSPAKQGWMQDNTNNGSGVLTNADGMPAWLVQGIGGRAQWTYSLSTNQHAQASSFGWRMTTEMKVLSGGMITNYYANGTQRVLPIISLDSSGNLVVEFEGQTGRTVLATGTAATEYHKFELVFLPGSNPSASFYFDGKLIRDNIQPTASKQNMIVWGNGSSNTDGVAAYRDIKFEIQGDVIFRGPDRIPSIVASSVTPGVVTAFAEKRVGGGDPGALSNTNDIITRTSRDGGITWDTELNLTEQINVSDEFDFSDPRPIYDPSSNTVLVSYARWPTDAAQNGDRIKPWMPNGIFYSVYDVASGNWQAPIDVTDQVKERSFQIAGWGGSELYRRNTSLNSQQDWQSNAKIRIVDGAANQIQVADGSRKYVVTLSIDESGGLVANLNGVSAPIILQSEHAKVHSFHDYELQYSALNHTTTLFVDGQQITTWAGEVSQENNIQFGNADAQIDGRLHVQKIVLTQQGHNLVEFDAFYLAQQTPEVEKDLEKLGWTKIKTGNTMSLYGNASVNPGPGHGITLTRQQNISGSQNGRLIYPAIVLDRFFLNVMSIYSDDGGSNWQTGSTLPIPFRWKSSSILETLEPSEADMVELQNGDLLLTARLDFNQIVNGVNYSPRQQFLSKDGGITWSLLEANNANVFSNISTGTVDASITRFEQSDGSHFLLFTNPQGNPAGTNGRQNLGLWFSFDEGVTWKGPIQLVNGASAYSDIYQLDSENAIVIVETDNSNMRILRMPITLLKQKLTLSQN
Experimental: as §1, §2, §3
(§4) The same procedure as that of Example 1 was repeated except that sialidases produced by Vibrio colerae and Streptococcus sp. were used, and then the inhibition rate of Compound 1 was determined.

[3] = tested on: sialidase produced by Streptococcus sp.; assay: as above; type: biochemical; details: same procedure as Example 1
Experimental: as §1, §2, §3, §4

[4] = tested on: Female ICR mice; assay: Acute toxicity test by intravenous injection; type: in vivo; details: for Number of deaths: Intravenous injection, 10 mice per level, observation period 14 days
Experimental: The acute toxicity test of Compound 1 was conducted by an intravenous injection in female mice.
Animals used: Female ICR mice (6 week old) Medicine concentration: 13 to 15 W/V % in distilled water Number of mice for each level: 10 Observation period: 14 days.

CC(=O)N[C@H]1[C@H]([C@H](O)[C@H](O)CO)OC(O)(C(=O)O)C(F)[C@@H]1O (stereo partly drawn) [Compound 1, N-acetyl-3-fluoroneuraminic acid]
Inhibition rate ([1]; Compound 1 at 0.001 mM): 14.3%
NeuAc released ([1]; Compound 1 at 0.001 mM): 23.0 n mol
Inhibition rate ([1]; Compound 1 at 0.01 mM): 48.9%
NeuAc released ([1]; Compound 1 at 0.01 mM): 14.0 n mol
Inhibition rate ([1]; Compound 1 at 0.1 mM): 82.0%
NeuAc released ([1]; Compound 1 at 0.1 mM): 4.9 n mol
inhibition pattern (Dixon plot) ([1]; Fig. 1, two different substrate concentrations): competitive with the substrate
activity of sialidase (inhibition, in words) ([1]; conclusion from Table 1): remarkably inhibits
NeuAc released ([2]; Compound 1 at 0.001 mM): 5.9 n mol
inhibition at 1 µM ([2]; Compound 1 at 0.001 mM, read-out: Inhibition rate): -0.2%
NeuAc released ([2]; Compound 1 at 0.01 mM): 5.3 n mol
inhibition at 10 µM ([2]; Compound 1 at 0.01 mM, read-out: Inhibition rate): 8.4%
NeuAc released ([2]; Compound 1 at 0.1 mM): 2.8 n mol
inhibition at 100 µM ([2]; Compound 1 at 0.1 mM, read-out: Inhibition rate): 52.7%
Inhibition rate ([3]; Compound 1 at 0.001 mM): 7.4%
NeuAc released ([3]; Compound 1 at 0.001 mM): 10.5 n mol
Inhibition rate ([3]; Compound 1 at 0.01 mM): 24.6%
NeuAc released ([3]; Compound 1 at 0.01 mM): 8.5 n mol
Inhibition rate ([3]; Compound 1 at 0.1 mM): 75.4%
NeuAc released ([3]; Compound 1 at 0.1 mM): 2.8 n mol
Number of deaths ([4]; dose 200 mg): 0
Number of deaths ([4]; dose 400 mg): 0
Number of deaths ([4]; dose 600 mg): 0
toxicity (in words) ([4]; conclusion from Table 4): quite low
